Results as given in EP0812829A1, “Substituted imidazoles as modulators of multi-drug resistance” (ONTOGEN CORPORATION, priority 1996, dated 1997).
Structures can show the parent of a compound that is named as a salt.

Assays:
CEM/VLB1000 Cells [1] = assay: Enhancement of 3H-vinblastine accumulation; assay type: cell-based; details: midpoint (EC50) of minimum and maximum increase in accumulation of 3H-vinblastine, 3H-vinblastine 550 nM, 3 hours at 37°C, read-out: [^3H]VLB Accumulation (µM) CEM/VLB1000 Cells
Protocol: Enhancement of ^3H-vinblastine accumulation was also measured in the cell line. Corning Easy-Wash 96 well plates were pretreated with PBS and 1% BSA for 60 minutes and then dried. CEM/VLB1000 cells were seeded at 2 x 10^5, 40 µL volume. Plates were incubated at 37°C for 30-60 minutes prior to use. The reference reversing agent, verapamil, or the compound of the present invention was added to the well followed by addition of media containing ^3H-vinblastine (final concentration = 550 nM). Plates were allowed to incubate for 3 hours at 37°C. Cells were harvested onto pretreated Wallace filtermats B (pretreated overnight with 0.1% polyethyleneimine) using a TomTek harvester-96. After filtering, the filtermats were allowed to dry completely. Meltix B scintillant was then added to the filtermats. The filters were then placed in a 90°C oven for approximately 3-5 minutes and then removed. Scintillant was allowed to solidify on the filtermats. Filtermats were then placed in sample bags and read on a Wallace BetaPlate scintillation counter. The effect of compounds of the present invention in the cytotoxicity potentiation assays and vinblastine (VLB) accumulation assay is given in the Table below: […]

CEM/VLB1000 Cells [2] = assay: Cytotoxicity potentiation assay (alamar blue), vinblastine in CEM/VLB1000 cells; details: read-out: Cytotoxicity Potentiation (µM) CEM/VLB1000 Cells; midpoint (EC50) of minimum and maximum cytotoxicity induced by 5 µg/mL vinblastine and compound; 48 hours incubation, alamar blue 24 hours
Protocol: Multidrug-resistant cell lines are easily obtainable for in vitro determination of drug sensitization by compounds of the present invention. In vitro potentiation of antineoplastic cytotoxicity by the imidazole derivatives of the present invention was measured in both CEM/VLB1000 and SK/VLB1000 cell lines. The multidrug resistant cell lines-were obtained from Dr. Victor Ling, Ontario Cancer Institute, Toronto, Canada. The CEM/VLB 1000 cell line was maintained as a suspension in minimum essential medium supplemented with 10% of fetal bovine serum in a humidied atmosphere of 95% air and 5% CO2 while the SK/VLB 1000 cell line was maintained as adherent cells using the identical medium conditions as the CEM cells. The CEM/VLB 1000 cells were seeded at a density of 5 x 10^4 cells/well in a 96 well microtiter plate while the SK/VLB 1000 cell line was seeded at a density of 2,500 cells/well after trypsinization. Vinblastine (5 µg/mL, for the CEM cells) or Taxol (3 µg/mL, for the SK cells) and compound (0.01 to 50 µM) were added directly to the wells. After an incubation of 48 hours in presence of drug, alamar blue (B. Page et al., Int. J. Oncol. 3: 473-476, 1993) was added (20 µL to the 200 µL cell suspension) for a period of 24 hours after which the fluorescence (excitation = […], emission = […]) was read for each well using a "CytoFluor" microtiter fluorometer plate reader. This assay measures the minimal concentration of compound necessary to enhance the cytotoxicity (EC50) of vinblastine in the MDR cell line.

SK/VLB1000 Cells = assay: Cytotoxicity potentiation assay (alamar blue), Taxol in SK/VLB1000 cells; assay type: cell-based; details: midpoint (EC50) of minimum and maximum cytotoxicity; method: Taxol 3 µg/mL for the SK cells (footnote: 5 µg/mL vinblastine); 48 hours incubation, alamar blue 24 hours
Protocol: In vitro potentiation of antineoplastic cytotoxicity by the imidazole derivatives of the present invention was measured in both CEM/VLB1000 and SK/VLB1000 cell lines. The multidrug resistant cell lines-were obtained from Dr. Victor Ling, Ontario Cancer Institute, Toronto, Canada. The CEM/VLB 1000 cell line was maintained as a suspension in minimum essential medium supplemented with 10% of fetal bovine serum in a humidied atmosphere of 95% air and 5% CO2 while the SK/VLB 1000 cell line was maintained as adherent cells using the identical medium conditions as the CEM cells. The CEM/VLB 1000 cells were seeded at a density of 5 x 10^4 cells/well in a 96 well microtiter plate while the SK/VLB 1000 cell line was seeded at a density of 2,500 cells/well after trypsinization. Vinblastine (5 µg/mL, for the CEM cells) or Taxol (3 µg/mL, for the SK cells) and compound (0.01 to 50 µM) were added directly to the wells. After an incubation of 48 hours in presence of drug, alamar blue (B. Page et al., Int. J. Oncol. 3: 473-476, 1993) was added (20 µL to the 200 µL cell suspension) for a period of 24 hours after which the fluorescence (excitation = 530 nM, emission = 590 nM) was read for each well using a "CytoFluor" microtiter fluorometer plate reader. This assay measures the minimal concentration of compound necessary to enhance the cytotoxicity (EC50) of vinblastine in the MDR cell line.

## Oc1ccc(-c2nc(-c3ccccc3)c(-c3ccccc3)n2-c2ccccc2)cc1 [Example 1, 2-(4-hydroxyphenyl)-1,4,5-triphenyl-imidazole trifluoroacetic acid salt]
CEM/VLB1000 Cells [1]
  EC50: 20 µM

## COc1ccc(-c2nc(-c3ccc(O)cc3)n(Cc3ccccc3)c2-c2ccc(OC)cc2)cc1 [Example 2, 1-benzyl-2-(4-hydroxyphenyl)-4,5-di-(4-methoxyphenyl)-imidazole trifluoroacetic acid salt]
CEM/VLB1000 Cells [1]
  EC50: 2 µM

## CN(C)c1ccc(-c2nc(-c3ccc(C(=O)O)cc3)[nH]c2-c2ccc(N(C)C)cc2)cc1 [Example 3, 2-(4-carboxyphenyl)-4,5-di-[4-(dimethylamino)-phenyl]-1(H)-imidazole]
CEM/VLB1000 Cells [2]
  EC50: 10 µM

## COC(=O)c1ccc(-c2nc(-c3ccc(N(C)C)cc3)c(-c3ccc(N(C)C)cc3)[nH]2)cc1 [Example 4, 4,5-di-[4-(dimethylamino)-phenyl]-2-[4-(methoxycarbonyl)-phenyl]-1(H)-imidazole]
SK/VLB1000 Cells
  EC50: 1 µM
CEM/VLB1000 Cells [2]
  EC50: 0.3 µM
CEM/VLB1000 Cells [1]
  EC50: 5 µM

## CCCCCCn1c(-c2ccc(C(=O)O)cc2)nc(-c2ccc(N(C)C)cc2)c1-c1ccc(N(C)C)cc1 [Example 5, 2-(4-carboxyphenyl)-4,5-di-[4-(dimethylamino)-phenyl]-1-(n-hexyl)-imidazole]
SK/VLB1000 Cells
  EC50: 10 µM
CEM/VLB1000 Cells [2]
  EC50: 3 µM
CEM/VLB1000 Cells [1]
  EC50: 12 µM

## CCCCCCn1c(-c2ccc(C(=O)OC)cc2)nc(-c2ccc(N(C)C)cc2)c1-c1ccc(N(C)C)cc1 [Example 6, 4,5-di-[4-(dimethylamino)-phenyl]-1-(n-hexyl)-2-[4-(methoxycarbonyl)-phenyl]-imidazole]
CEM/VLB1000 Cells [2]
  EC50: 5 µM

## CN(C)c1ccc(-c2nc(-c3ccc(/C=C/C(=O)O)cc3)[nH]c2-c2ccc(N(C)C)cc2)cc1 [Example 7, 2-[4-(trans-2-carboxyethenyl)-phenyl] -4,5-di-[4-(dimethylamino)-phenyl]-1(H)-imidazole]
CEM/VLB1000 Cells [2]
  EC50: 10 µM

## COC(=O)C=Cc1ccc(-c2nc(-c3ccc(N(C)C)cc3)c(-c3ccc(N(C)C)cc3)[nH]2)cc1 [Example 8, 4,5-di-[4-(dimethylamino)-phenyl]-2-{4-[trans-(2-methoxycarbonyl)-ethenyl]-phenyl}-1(H)-imidazole]
SK/VLB1000 Cells
  EC50: 0.3 µM
CEM/VLB1000 Cells [2]
  EC50: 0.3 µM
CEM/VLB1000 Cells [1]
  EC50: 5 µM

## CN(C)c1ccc(-c2nc(-c3ccc(O)cc3)[nH]c2-c2ccc(N(C)C)cc2)cc1 [Example 9, 4,5-di-[4-(dimethylamino)-phenyl]-2-(4-hydroxyphenyl)-1(H)-imidazole]
SK/VLB1000 Cells
  EC50: 10 µM
CEM/VLB1000 Cells [2]
  EC50: 10 µM
CEM/VLB1000 Cells [1]
  EC50: 20 µM

## CN(C)c1ccc(-c2nc(-c3ccc(O)cc3)n(CCc3ccccc3)c2-c2ccc(N(C)C)cc2)cc1 [Example 10, 4,5-di-[4-(dimethylamino)-phenyl]-2-(4-hydroxyphenyl)-1-(2-phenylethyl)-imidazole]
CEM/VLB1000 Cells [2]
  EC50: 2 µM
CEM/VLB1000 Cells [1]
  EC50: 10 µM

## CN(C)c1ccc(-c2nc(-c3ccc(C(=O)O)cc3)n(CCc3ccccc3)c2-c2ccc(N(C)C)cc2)cc1 [Example 11, 2-(4-carboxyphenyl)-4,5-di-[4-(dimethylamino)-phenyl]-1-(2-phenylethyl)-imidazole]
CEM/VLB1000 Cells [2]
  EC50: 10 µM

## CN(C)c1ccc(-c2nc(-c3ccc(/C=C/C(=O)O)cc3)n(CCc3ccccc3)c2-c2ccc(N(C)C)cc2)cc1 [Example 12, 2-[4-(trans-2-carboxyethenyl)-phenyl]-4,5-di-[4-(dimethylamino)-phenyl]-1-(2-phenylethyl)-imidazole]
CEM/VLB1000 Cells [2]
  EC50: 10 µM

## COC(=O)/C=C/c1ccc(-c2nc(-c3ccc(OC)cc3)c(-c3ccc(OC)cc3)n2CCCCCC(=O)OC)cc1 [Example 13, 4,5-di-(4-methoxyphenyl)-2-{4-[trans-(2-methoxycarbonyl)-ethenyl]-phenyl}-1-[5-(methoxycarbonyl)-n-pentyl)-imidazole]
CEM/VLB1000 Cells [2]
  EC50: 0.6 µM

## COc1ccc(-c2nc(-c3ccc(/C=C/c4ccccc4)cc3)n(CCCn3ccnc3)c2-c2ccc(OC)cc2)cc1 [Example 14, 2-(trans-4-stilbenyl)-1-[3-(imidazol-1-yl)-n-propyl]-4,5-di-(4-methoxyphenyl)-imidazole]
SK/VLB1000 Cells
  EC50: 1 µM
CEM/VLB1000 Cells [2]
  EC50: 0.4 µM

## COC(=O)/C=C/c1ccc(-c2nc(-c3ccc(N(C)C)cc3)c(-c3ccc(N(C)C)cc3)n2CCCCCC(=O)OC)cc1 [Example 15, 4,5-di-[4-(dimethylamino)-phenyl]-2-{4-[trans-(2-methoxycarbonyl)-ethenyl]-phenyl}-1-[5-(methoxycarbonyl)-n-pentyl-]-imidazole]
SK/VLB1000 Cells
  EC50: 5 µM
CEM/VLB1000 Cells [2]
  EC50: 0.6 µM

## CCCCCCn1c(-c2ccc(OCCCN(C)C)cc2)nc(-c2ccc(OC)cc2)c1-c1ccc(OC)cc1 [Example 16, 4,5-di-(4-methoxyphenyl)-2-{4-[3-(dimethylamino)-propyloxy]-phenyl}-1-(n-hexyl)-imidazole]
SK/VLB1000 Cells
  EC50: 10 µM
CEM/VLB1000 Cells [2]
  EC50: 2 µM
